Patent publication US20260076935A1, “PREVENTION AND TREATMENT OF CONDITIONS USING ETHYL PYRUVATE” (The Trustees of Columbia University in the City of New York, priority 2023, published 2026)

Columns and labels:
[1] = Long-term dosing of mice, adverse effects; format: in vivo; settings: mice dosed for at least up to nine months
Protocol: Ethyl pyruvate was sourced from Sigma-Aldrich. […] See, e.g., Clinical Trial Identifier NCT00107666 (human cardiac trial, dosing ethyl pyruvate at 7.5 g (90 mg/kg) intravenously, every six hours for two days); Xiujing Sun et al., Ethyl Pyruvate Supplemented in Drinking Water Ameliorates Experimental Nonalcoholic Steatohepatitis, 137 Biomedical Pharmacotherapy 111392 (2021); Leilei Mao et al., Ethyl Pyruvate Improves White Matter Remodeling in Rats After Traumatic Brain Injury, 27 CNS Neuroscience & Therapeutics 113 (2021); C. C. Jacobs et al, Ethyl Pyruvate Diminishes the Inflammatory Response to Lipopolysaccharide Infusion in Horses, 45 Equine Veterinary J. 333 (2013). […] Furthermore, ethyl pyruvate is an FDA-approved food additive and flavoring agent.

[2] = test system: early-onset Lmx1b developmental glaucoma model; experiment: Intraocular pressure (IOP) in mice with early-onset Lmx1b developmental glaucoma model; format: in vivo
From the text: Ethyl pyruvate's ability to treat or prevent IOP elevation ocular developmental abnormalities was surprising at least because such effects have not been observed with sodium pyruvate treatments.

[3] = multiple mammalian species, including humans, mice, rats, and horses; cited from earlier work
[4] = test system: early onset Lmx1b developmental glaucoma model; experiment: Glaucomatous optic nerve damage (neurodegeneration) in Lmx1b glaucoma mice; format: in vivo; settings: FIG. 8
[5] = test system: early onset Lmx1b developmental glaucoma model; experiment: Ocular developmental abnormalities (iridocorneal adhesions, anterior chamber depth) in Lmx1b glaucoma mice; format: in vivo
From the text: As shown in FIGS. 4-6, in addition to preventing or treating high IOP, treatment of mice harboring an early onset Lmx1b developmental glaucoma model with ethyl pyruvate, alone or in combination with a metabolite boosting agent, unexpectedly rescued ocular developmental abnormalities. […] Ethyl pyruvate's ability to treat or prevent IOP elevation ocular developmental abnormalities was surprising at least because such effects have not been observed with sodium pyruvate treatments.

[6] = test system: age-onset mouse glaucoma models; experiment: IOP in age-onset mouse glaucoma models; format: in vivo
Protocol: In some embodiments, one or more of these factors may lead to glaucoma. In some embodiments, the mouse model is a Lmx1b mouse model. This is unexpected at least because sodium pyruvate had no effect on IOP in age-onset mouse glaucoma models, or in the early-onset Lmx1b developmental glaucoma model. For example, treatment of Lmx1b mice with about 500 mg/kg/day of sodium pyruvate had no effect on IOP at 2, 3, and 4-months post-treatment. This is also unexpected at least because calcium pyruvate had no effect on IOP in humans in prior clinical studies.

[7] = prior clinical studies; cited from earlier work
[8] = about 500 mg/kg/day, 2, 3, and 4-months post-treatment, Lmx1b mice

In the case of `CCOC(=O)C(C)=O` [ethyl pyruvate], the adverse effects [1] is reported as “without adverse effects”, the IOP ([2]; ethyl pyruvate 500 mg/kg/day, out to two months of age, FIG. 1) is reported as “lessening of IOP” and the IOP ([2]; ethyl pyruvate 2000 mg/kg/day, FIG. 2) is reported as “lessening of IOP”. For the same compound, the safety and tolerability [3] was “safe and well-tolerated”, the “glaucomatous optic nerve damage (neurodegeneration)” value ([4]; ethyl pyruvate 2000 mg/kg/day, mice aged to six months) was “lessening of glaucomatous optic nerve damage” and the anterior chamber deepening ([5]; FIGS. 5-6) was “significant effect in preventing or reducing anterior chamber deepening”. For the same compound, the “incidence and severity of iridocorneal adhesions” value ([5]; ethyl pyruvate 2000 mg/kg/day, FIG. 4) was “less incidence and severity”.

In the case of `CC(=O)C(=O)[O-].[Na+]` [sodium pyruvate], the IOP [2, 8] is reported as “no effect”, the IOP elevation ([2]; sodium pyruvate 500 mg/kg/day, after two months, FIG. 7) is reported as “no effect” and the “IOP compared to untreated” value ([2]; sodium pyruvate 500 mg/kg/day, at three and four months) is reported as “no changes were observed”. For the same compound, the IOP [6] was “no effect”, the “severity of anterior eye developmental abnormalities” value [5, 8] was “no effect” and the “severity of anterior eye developmental abnormalities” value ([5]; sodium pyruvate 500 mg/kg/day) was “no change”.

In the case of `NC(=O)c1cccnc1` [nicotinamide], the “glaucomatous optic nerve damage” value ([4]; nicotinamide 550 mg/kg/day) is reported as “protective from glaucomatous optic nerve damage”.

In the case of calcium pyruvate, the IOP in humans [7] is listed as “no effect”.
